Measurements: ChEMBL document CHEMBL1687865, “Antifungal lipopeptides from Bacillus amyloliquefaciens strain BO7” (J Nat Prod, 2011)
≈ marks a conversion by molar mass, not a printed value. *1 amine or outer side, *2 acyl side, *3 side chain or, on linkers, in order; H or OH if unused. Where a SMILES comes first, the peptide text is derived from it. Bridges are numbered along the chain shown (N, C = ends). X1 = CCCCCCCCCCCCCCC[C@H](CC(=O)[*:1])O[*:2]; X2 = CCCCCCCCCCCCCC[C@H](CC(=O)[*:1])O[*:2]; X3 = CCCCCCCCCCCCC[C@H](CC(=O)[*:1])O[*:2]

Legend:
[1] = Antifungal activity against Fusarium oxysporum f. sp. lycopersici 4287 assessed as reduction in mycelium growth at 100 ppm after 72 hrs by spectrophotometric analysis; assay type: functional; set-up: scale not given: the % may be the effect or the level left
[2] = Antifungal activity against Fusarium oxysporum f. sp. lycopersici 4287 assessed as reduction in mycelium growth at 50 ppm after 72 hrs by spectrophotometric analysis; assay type: functional; set-up: scale not given: the % may be the effect or the level left
Penicillium digitatum = experiment: […] activity against Penicillium digitatum; assay type: functional, organism-based

Row | SMILES | Activity [1] | Activity [2] | EC50 (Penicillium digitatum)
1 | CCCCCCCCCCCCCCC[C@@H]1CC(=O)N[C@@H](CCC(=O)O)C(=O)N[C@@H](CC(C)C)C(=O)N[C@@H](CC(C)C)C(=O)N[C@@H](C)C(=O)N[C@@H](CC(=O)O)C(=O)N[C@@H](CC(C)C)C(=O)N[C@@H](CC(C)C)C(=O)O1 (ELLADLL; linker N-C via X1) | 56% | 25% | 88.5 µg/mL (≈ 84.2 µM)
2 | CCCCCCCCCCCCCC[C@@H]1CC(=O)N[C@@H](CCC(=O)O)C(=O)N[C@@H](CC(C)C)C(=O)N[C@@H](CC(C)C)C(=O)N[C@@H](C)C(=O)N[C@@H](CC(=O)O)C(=O)N[C@@H](CC(C)C)C(=O)N[C@@H](CC(C)C)C(=O)O1 (ELLADLL; linker N-C via X2) | 11% | – | –
3 | CCCCCCCCCCCCC[C@@H]1CC(=O)N[C@@H](CCC(=O)O)C(=O)N[C@@H](CC(C)C)C(=O)N[C@@H](CC(C)C)C(=O)N[C@@H](C)C(=O)N[C@@H](CC(=O)O)C(=O)N[C@@H](CC(C)C)C(=O)N[C@@H](CC(C)C)C(=O)O1 (ELLADLL; linker N-C via X3) | 29% | – | –
